From publication PMC5051719, “Fourth-Generation Progestins Inhibit 3β-Hydroxysteroid Dehydrogenase Type 2 and Modulate the Biosynthesis of Endogenous Steroids” (PLoS ONE, 2016)
Where two headings read alike, the source gives them in different places.

Assays:
Assay type in all cases: cell-based
[1] = molecular target: T1, 3β-hydroxysteroid dehydrogenase type 2 (3βHSD2) (Homo sapiens, UniProt P26439); test: pregnenolone to progesterone conversion kinetics in transfected COS-1 cells, UPLC-MS/MS
T1 construct: gene HSD3B2
T1 sequence (P26439 1-372): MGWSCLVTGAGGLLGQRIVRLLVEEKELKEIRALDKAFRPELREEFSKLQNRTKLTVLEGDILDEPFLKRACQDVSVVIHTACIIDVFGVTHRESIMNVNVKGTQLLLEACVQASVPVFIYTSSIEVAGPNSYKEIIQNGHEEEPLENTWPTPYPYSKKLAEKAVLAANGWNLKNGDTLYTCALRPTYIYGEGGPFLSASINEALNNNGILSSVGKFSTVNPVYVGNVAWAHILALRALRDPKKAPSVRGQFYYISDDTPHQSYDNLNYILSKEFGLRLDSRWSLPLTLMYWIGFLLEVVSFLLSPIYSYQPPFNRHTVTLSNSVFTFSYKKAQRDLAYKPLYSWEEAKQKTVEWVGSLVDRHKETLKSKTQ

[2] = molecular target: T2, cytochrome P450 17α-hydroxylase/17,20 lyase (CYP17A1) (Homo sapiens, UniProt P05093); test: progesterone conversion in transfected COS-1 cells with […] inhibitor, UPLC-MS/MS
T2 construct: pIRES-hCYP17A1-V5-X-hCYPB5-6HIS expressed in COS-1 cells

[3] = molecular target: T1, 3β-hydroxysteroid dehydrogenase type 2 (3βHSD2); test: Michaelis-Menten kinetics of conversion to progesterone in transfected COS-1 cells (Km), UPLC-MS/MS

T2 sequence (P05093 whole entry): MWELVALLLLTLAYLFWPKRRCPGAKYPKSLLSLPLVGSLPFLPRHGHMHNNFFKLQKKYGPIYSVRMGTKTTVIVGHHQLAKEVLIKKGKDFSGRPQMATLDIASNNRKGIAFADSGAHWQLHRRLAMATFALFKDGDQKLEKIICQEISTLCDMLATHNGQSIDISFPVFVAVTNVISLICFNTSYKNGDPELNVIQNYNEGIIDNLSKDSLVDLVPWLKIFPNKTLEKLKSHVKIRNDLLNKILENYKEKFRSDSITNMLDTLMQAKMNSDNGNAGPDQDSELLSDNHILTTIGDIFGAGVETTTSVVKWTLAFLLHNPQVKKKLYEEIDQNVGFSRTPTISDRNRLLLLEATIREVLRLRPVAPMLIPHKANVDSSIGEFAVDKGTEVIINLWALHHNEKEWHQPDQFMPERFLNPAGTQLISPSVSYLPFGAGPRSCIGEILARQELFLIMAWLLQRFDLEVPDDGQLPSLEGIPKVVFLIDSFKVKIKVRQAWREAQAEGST
T2 sequence (P00167 2-134, further chain): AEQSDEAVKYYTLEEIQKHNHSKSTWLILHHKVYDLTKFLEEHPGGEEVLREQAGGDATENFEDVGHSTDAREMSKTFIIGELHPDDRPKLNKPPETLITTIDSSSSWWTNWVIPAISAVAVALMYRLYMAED

SMILES | Ki ([1]; read-out: Ki) [nM] | further results
C[C@]12CCC(=O)C=C1[C@@H]1C[C@@H]1[C@H]1[C@@H]3[C@@H]4C[C@@H]4[C@@]4(CCC(=O)O4)[C@@]3(C)CC[C@@H]12 [DRSP, drospirenone] | 232 ± 38 | inhibition at 1 µM [2]: 55.2 ± 16.5%
C=C1C[C@H]2[C@@H]3CCC4=CC(=O)CCC4[C@H]3CC[C@]2(C)C1(OC(C)=O)C(C)=O (stereo partly drawn) [NES, nestorone] | 9.5 ± 0.96 | 
CC(=O)O[C@]1(C(C)=O)CC[C@H]2[C@@H]3C=C(C)C4=CC(=O)CC[C@@H]4[C@H]3CC[C@@]21C [NoMAC, nomegestrol acetate] | 29 ± 7.1 | 
CC(=O)[C@H]1CC[C@H]2[C@@H]3CC=C4C[C@@H](O)CC[C@]4(C)[C@H]3CC[C@]12C [Preg, pregnenolone] |  | Km [3]: 850 ± 50 nM
C[C@]12CC[C@H]3[C@@H](CC[C@@]45O[C@@H]4C(O)=C(C#N)C[C@]35C)[C@@H]1CC[C@@H]2O [trilostane, reference compound] |  | Ki [1]: 31.3 ± 5.5 nM
